Source: US10131642B1, “Aldosterone synthase inhibitors” (Boehringer Ingelheim International GmbH, priority 2015, dated 2018)
Where a name gives a salt, the structure may show the parent alone. Read-outs that look alike come from different tables or passages of the source.

Legend:
[1] = target: cortisol synthase (CYP11B1) (Macaca fascicularis, UniProt A0A2K5ULY1); assay: Inhibition of cortisol synthesis (cynomolgus adrenal mitochondria, cortisol by mass spectrometry); type: biochemical, cynomolgus monkey
Method: The aldosterone synthase and cortisol synthase inhibition assays employ cynomolgus adrenal gland mitochondria as the source of aldosterone synthase (CYP11B2) and cortisol synthase (CYP11B1). Mitochondria are prepared from frozen cynomolgus monkey adrenal glands according to Method A described in by J. D. McGarry et al. (Biochem. J., 1983, 214, 21-28), with a final resuspension in the AT buffer described in R. Yamaguchi et al. (Cell Death and Differentiation, 2007, 14, 616-624), frozen as aliquots in liquid nitrogen and stored at −80° C. until use. Activity of CYP11B2 and CYP11B1 in these preparations is defined as the amount of enzyme that generates 1 pmol of product in one hour under the conditions described. Dose dependent inhibition is quantified by the inclusion of compound at various concentrations. Maximum activity (100%) is defined by reactions containing NADPH, but without compound. Activities at each concentration are expressed as a percentage of the maximum activity (y-axis) and plotted against concentration of compound (x-axis) and the concentration corresponding to 50% activity (IC50) determined using the XLFit curve-fitting program using a 4-parameter logistic model. Assays are performed as for aldosterone synthase except for the use of 150 units of CYP11B1, 11-deoxycortisol as substrate and cortisol measured as product.

[2] = target: T1, aldosterone synthase (CYP11B2) (Macaca fascicularis, UniProt A0A2K5UPL9); assay: Inhibition of aldosterone synthase (cynomolgus adrenal mitochondria, aldosterone by mass spectrometry); type: biochemical, cynomolgus monkey; conditions: cynomolgus adrenal gland mitochondria, 2 μM corticosterone substrate, 90 minutes at 37° C.
T1 construct: cynomolgus adrenal gland mitochondria as the source of aldosterone synthase (CYP11B2); from tissue; host or cells: cynomolgus monkey adrenal gland mitochondria
T1 sequence (A0A2K5UPL9 1-503): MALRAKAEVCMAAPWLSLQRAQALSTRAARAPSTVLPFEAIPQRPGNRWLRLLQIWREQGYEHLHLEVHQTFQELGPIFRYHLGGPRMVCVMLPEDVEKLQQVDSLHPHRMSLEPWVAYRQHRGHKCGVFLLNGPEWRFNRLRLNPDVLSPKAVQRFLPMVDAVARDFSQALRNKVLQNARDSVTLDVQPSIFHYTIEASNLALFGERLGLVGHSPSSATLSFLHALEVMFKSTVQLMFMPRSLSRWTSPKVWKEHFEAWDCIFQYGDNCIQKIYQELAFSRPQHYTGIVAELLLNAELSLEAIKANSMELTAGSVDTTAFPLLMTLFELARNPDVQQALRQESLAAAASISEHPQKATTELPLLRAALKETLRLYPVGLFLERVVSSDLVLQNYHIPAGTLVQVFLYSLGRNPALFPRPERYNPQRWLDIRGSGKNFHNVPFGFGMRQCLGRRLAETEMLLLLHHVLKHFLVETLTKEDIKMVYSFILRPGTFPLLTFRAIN
Method: The aldosterone synthase and cortisol synthase inhibition assays employ cynomolgus adrenal gland mitochondria as the source of aldosterone synthase (CYP11B2) and cortisol synthase (CYP11B1). Mitochondria are prepared from frozen cynomolgus monkey adrenal glands according to Method A described in by J. D. McGarry et al. (Biochem. J., 1983, 214, 21-28), with a final resuspension in the AT buffer described in R. Yamaguchi et al. (Cell Death and Differentiation, 2007, 14, 616-624), frozen as aliquots in liquid nitrogen and stored at −80° C. until use. Activity of CYP11B2 and CYP11B1 in these preparations is defined as the amount of enzyme that generates 1 pmol of product in one hour under the conditions described.
Assays are performed in 96-well format in a final volume of 60 µL/well, containing 100 mM potassium phosphate, pH 7.4, 1% (v/v) DMSO, and additionally, 2 μM of corticosterone and 50 units of CYP11B2 activity. Reactions are started by the addition of NADPH to 1 mM and allowed to proceed for 90 minutes at 37° C. Reactions are terminated by the addition of 60 μL of MeCN containing an internal standard for mass spectrometry. One hundred microliters are then transferred to a glass filter plate and centrifuged at 570×g for 5 minutes and the filtrate is collected. Reaction product aldosterone is quantified by mass spectrometry. To determine the assay blank value (0% activity), NADPH is omitted from some reactions.
Dose dependent inhibition is quantified by the inclusion of compound at various concentrations. Maximum activity (100%) is defined by reactions containing NADPH, but without compound. Activities at each concentration are expressed as a percentage of the maximum activity (y-axis) and plotted against concentration of compound (x-axis) and the concentration corresponding to 50% activity (IC50) determined using the XLFit curve-fitting program using a 4-parameter logistic model.

[3] = cynomolgus adrenal gland mitochondria, 11-deoxycortisol as substrate, cortisol measured as product; read-out: CYP11B1 Inhibition IC50

Structure (SMILES) | IC50 [1, 3] [nM] | IC50 [2] [nM] | IC50 ([1]; read-out: CYP11B1 Inhibition IC50; cynomolgus adrenal gland mitochondria, 11-deoxycortisol as substrate, cortisol measured as product) [nM]
CC(=O)N1CCC(Cc2onc3c2C(=O)CC(C(C)C)C3)CC1 (single isomer, unassigned) [Cpd 15A, 3-(1-Acetyl-piperidin-4-ylmethyl)-6-isopropyl-6,7-dihydro-5H-benzo[c]isoxazol-4-one] | 2800 | 22 | 
CC(=O)N1CCC(Cc2onc3c2C(=O)CC(C(C)C)C3)CC1 (single isomer, unassigned) [Cpd 15B, 3-(1-Acetyl-piperidin-4-ylmethyl)-6-isopropyl-6,7-dihydro-5H-benzo[c]isoxazol-4-one] | 18000 | 110 | 
CC(C)C1CC(=O)c2c(noc2Cc2ccc(C#N)cc2)C1 (single isomer, unassigned) [Cpd 39A, 4-(-6-Isopropyl-4-oxo-4,5,6,7-tetrahydro-benzo[c]isoxazol-3-ylmethyl)-benzonitrile] | 8300 | 230 | 
CC(C)C1CC(=O)c2c(noc2Cc2ccc(C#N)cc2)C1 (single isomer, unassigned) [Cpd 39B, 4-(-6-Isopropyl-4-oxo-4,5,6,7-tetrahydro-benzo[c]isoxazol-3-ylmethyl)-benzonitrile] | 3400 | 120 | 
O=C1CC2(CCC2)Cc2noc(Cc3ccccc3)c21 [Cpd 1, 6,6-spiro-cyclobutyl-3-benzyl-6,7-dihydro-5-H-benzo[c]isoxazole-4-one] | 1100 | 7.2 | 
O=C1CC(CC2CC2)Cc2noc(Cc3ccccc3)c21 (stereo not drawn) [Cpd 2, 3-Benzyl-6-cyclopropylmethyl-6,7-dihydro-5H-benzo[c]isoxazol-4-one] | 5000 | 11 | 
CC1(C)CC(=O)c2c(noc2Cc2ccc3c(c2)OCCO3)C1 [Cpd 3, 3-(2,3-Dihydro-benzo[1,4]dioxin-6-ylmethyl)-6,6-dimethyl-6,7-dihydro-5H-benzo[c]isoxazol-4-one] | 590 | 17 | 
CC(C)C1CC(=O)c2c(noc2CC2CC2)C1 (stereo not drawn) [Cpd 6, 3-Cyclopropylmethyl-6-isopropyl-6,7-dihydro-5H-benzo[c]isoxazol-4-one] | 21000 | 27 | 
CC(C)C1CC(=O)c2c(noc2CC2CCOCC2)C1 (stereo not drawn) [Cpd 7, 6-Isopropyl-3-(tetrahydro-pyran-4-ylmethyl)-6,7-dihydro-5H-benzo[c]isoxazol-4-one] | 20000 | 33 | 
COc1ccc(Cc2onc3c2C(=O)CC(C2CCOCC2)C3)cc1 (stereo not drawn) [Cpd 8, 3-(4-Methoxy-benzyl)-6-(tetrahydro-pyran-4-yl)-6,7-dihydro-5H-benzo[c]isoxazol-4-one] | > 100000 | 78 | 
CC1(C)CC(=O)c2c(noc2Cc2ccc(S(C)(=O)=O)cc2)C1 [Cpd 9, 3-(4-Methanesulfonyl-benzyl)-6,6-dimethyl-6,7-dihydro-5H-benzo[c]isoxazol-4-one] | 3700 | 84 | 
COc1ccc(Cc2onc3c2C(=O)CC(C)(C)C3)cn1 [Cpd 10, 3-(6-Methoxy-pyridin-3-ylmethyl)-6,6-dimethyl-6,7-dihydro-5H-benzo[c]isoxazol-4-one] | 7700 | 110 | 
CC1(C)CC(=O)c2c(noc2Cc2cccc(C#N)c2)C1 [Cpd 11, 3-(6,6-Dimethyl-4-oxo-4,5,6,7-tetrahydro-benzo[c]isoxazol-3-ylmethyl)-benzonitrile] | 9300 | 140 | 
N#Cc1ccc(Cc2onc3c2C(=O)CC(C2CCOCC2)C3)cc1 (stereo not drawn) [Cpd 12, 4-[4-Oxo-6-(tetrahydro-pyran-4-yl)-4,5,6,7-tetrahydro-benzo[c]isoxazol-3-ylmethyl]-benzonitrile] | 51000 | 180 | 
CC1(C)CC(=O)c2c(noc2Cc2ccc(F)cc2)C1 [Cpd 13, 3-(4-Fluoro-benzyl)-6,6-dimethyl-6,7-dihydro-5H-benzo[c]isoxazol-4-one] | 22000 | 190 | 
CC(C)C1CC(=O)c2c(noc2CC2CCNCC2)C1 (stereo not drawn) [Cpd 14, 4-(6-Isopropyl-4-oxo-4,5,6,7-tetrahydro-benzo[c]isoxazol-3-ylmethyl)-piperidinium hydrochloride] |  | 2400 | > 30000
CC(=O)N1CCC(Cc2onc3c2C(=O)CC2(CCC2)C3)CC1 [Cpd 16, 3-(1-Acetyl-piperidin-4-ylmethyl)-6,6-spiro-cyclobutyl-6,7-dihydro-5H-benzo[c]isoxazol-4-one] | 3900 | 47 | 
CC(=O)N1CCC(Cc2onc3c2C(=O)CC(C)(C)C3)CC1 [Cpd 17, 3-(1-Acetyl-piperidin-4-ylmethyl)-6,6-dimethyl-6,7-dihydro-5H-benzo[c]isoxazol-4-one] | 24000 | 690 | 
COCC(=O)N1CCC(Cc2onc3c2C(=O)CC(C(C)C)C3)CC1 (stereo not drawn) [Cpd 18, 6-Isopropyl-3-[1-(2-methoxy-acetyl)-piperidin-4-ylmethyl]-6,7-dihydro-5H-benzo[c]isoxazol-4-one] | 2800 | 89 | 
CC(C)C1CC(=O)c2c(noc2CC2CCN(C(=O)CO)CC2)C1 (stereo not drawn) [Cpd 19, 3-[1-(2-Hydroxy-acetyl)-piperidin-4-ylmethyl]-6-isopropyl-6,7-dihydro-5H-benzo[c]isoxazol-4-one] | 9900 | 200 | 
CC(C)C1CC(=O)c2c(noc2CC2CCN(C(=O)CS(C)(=O)=O)CC2)C1 (stereo not drawn) [Cpd 20, 6-Isopropyl-3-[1-(2-methanesulfonyl-acetyl)-piperidin-4-ylmethyl]-6,7-dihydro-5H-benzo[c]isoxazol-4-one] | 14000 | 410 | 
CC(C)C1CC(=O)c2c(noc2CC2CCN(C(N)=O)CC2)C1 (stereo not drawn) [Cpd 21, 4-(6-Isopropyl-4-oxo-4,5,6,7-tetrahydro-benzo[c]isoxazol-3-ylmethyl)-piperidine-l-carboxylic acid amide] | 23000 | 330 | 
NC(=O)N1CCC(Cc2onc3c2C(=O)CC2(CCC2)C3)CC1 [Cpd 22, 4-(6,6-spiro-cyclobutyll-4-oxo-4,5,6,7-tetrahydro-benzo[c]isoxazol-3-ylmethyl)-piperidine-l-carboxylic acid amide] | 3500 | 57 | 
CC1(C)CC(=O)c2c(noc2Cc2ccc(C#N)cc2)C1 [Cpd 23, 4-(6,6-Dimethyl-4-oxo-4,5,6,7-tetrahydro-benzo[c]isoxazol-3-ylmethyl)-benzonitrile] | 74000 | 69 | 
CS(=O)(=O)CCCOc1ccc(Cc2onc3c2C(=O)CC(CC2CC2)C3)cc1 (stereo not drawn) [Cpd 24, 6-Cyclopropylmethyl-3-[4-(3-methanesulfonyl-propoxy)-benzyl]-6,7-dihydro-5H-benzo[c]isoxazol-4-one] | 1300 | 17 | 
CC1(C)CC(=O)c2c(noc2Cc2ccc(I)cc2)C1 [Cpd 25, 3-(4-Iodo-benzyl)-6,6-dimethyl-6,7-dihydro-5H-benzo[c]isoxazol-4-one] | 2800 | 29 | 
O=C1CC(Cc2ccccc2)Cc2noc(Cc3ccccc3)c21 (stereo not drawn) [Cpd 26, 3,6-Dibenzyl-6,7-dihydro-5H-benzo[c]isoxazol-4-one] | 2300 | 49 | 
